From ChEMBL document CHEMBL5357068, “Discovery of Novel TLR7 Agonists as Systemic Agent for Combination With aPD1 for Use in Immuno-oncology” (ACS Med Chem Lett, 2024) come the findings set out here.

Usually IC50 stands for the concentration at which inhibition is half-maximal. A lower IC50 goes with inhibition by little substance. The EC50 is the concentration at which the effect is half-maximal. A low value points to higher potency in that assay.

One data set in a line: in vitro. To be noted: PHA-activated T cells.
Data set [1] can be described thus: Metabolic stability in human liver microsomes assessed as compound remaining. Further: time not given here. In kind it is ADME, Microsome.
Data set [2] in a line: Metabolic stability in mouse liver microsomes assessed as compound remaining. Further: time not given here. In kind it is ADME, Microsome. On the technique in general: Liver microsomes are a subcellular fraction often used to study metabolism.
Data set [3] addresses Voltage-gated inwardly rectifying potassium channel KCNH2 (Homo sapiens, UniProt Q12809). The experiment in a line: Inhibition of hERG by patch clamp assay. In kind it is toxicity.
Data set [4] addresses T1, Toll-like receptor 7 (Homo sapiens, UniProt Q9NYK1).
T1 sequence (Q9NYK1 whole entry): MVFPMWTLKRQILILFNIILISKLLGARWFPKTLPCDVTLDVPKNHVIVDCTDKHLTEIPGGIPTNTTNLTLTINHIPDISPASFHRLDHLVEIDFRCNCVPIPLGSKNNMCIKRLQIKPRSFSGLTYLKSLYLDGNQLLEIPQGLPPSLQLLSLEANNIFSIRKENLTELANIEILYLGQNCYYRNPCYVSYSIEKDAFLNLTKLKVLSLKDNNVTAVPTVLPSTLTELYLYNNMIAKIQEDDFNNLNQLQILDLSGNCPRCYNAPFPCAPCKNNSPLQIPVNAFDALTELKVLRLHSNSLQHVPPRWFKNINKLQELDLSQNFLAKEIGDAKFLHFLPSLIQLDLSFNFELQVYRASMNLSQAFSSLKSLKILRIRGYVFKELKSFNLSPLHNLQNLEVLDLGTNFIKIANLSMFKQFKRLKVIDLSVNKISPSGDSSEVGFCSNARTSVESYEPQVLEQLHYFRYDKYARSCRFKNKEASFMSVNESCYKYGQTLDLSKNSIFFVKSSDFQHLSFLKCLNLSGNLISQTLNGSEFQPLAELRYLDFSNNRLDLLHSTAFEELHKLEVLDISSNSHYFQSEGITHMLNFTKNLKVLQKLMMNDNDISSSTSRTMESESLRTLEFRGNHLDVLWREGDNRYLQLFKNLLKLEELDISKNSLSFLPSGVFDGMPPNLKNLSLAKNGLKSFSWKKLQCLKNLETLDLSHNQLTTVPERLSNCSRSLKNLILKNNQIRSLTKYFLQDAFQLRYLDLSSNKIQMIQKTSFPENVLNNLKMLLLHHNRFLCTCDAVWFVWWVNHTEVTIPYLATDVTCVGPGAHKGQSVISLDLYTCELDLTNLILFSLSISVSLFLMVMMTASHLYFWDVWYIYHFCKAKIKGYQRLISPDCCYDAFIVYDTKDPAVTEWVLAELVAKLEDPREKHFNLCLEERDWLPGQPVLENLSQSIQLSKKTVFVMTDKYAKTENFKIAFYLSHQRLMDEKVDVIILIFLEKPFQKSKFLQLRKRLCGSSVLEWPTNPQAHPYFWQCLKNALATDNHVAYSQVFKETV

Data set [5] has as its target T2, Toll-like receptor 7 (Mus musculus, UniProt P58681).
T2 sequence (P58681 whole entry): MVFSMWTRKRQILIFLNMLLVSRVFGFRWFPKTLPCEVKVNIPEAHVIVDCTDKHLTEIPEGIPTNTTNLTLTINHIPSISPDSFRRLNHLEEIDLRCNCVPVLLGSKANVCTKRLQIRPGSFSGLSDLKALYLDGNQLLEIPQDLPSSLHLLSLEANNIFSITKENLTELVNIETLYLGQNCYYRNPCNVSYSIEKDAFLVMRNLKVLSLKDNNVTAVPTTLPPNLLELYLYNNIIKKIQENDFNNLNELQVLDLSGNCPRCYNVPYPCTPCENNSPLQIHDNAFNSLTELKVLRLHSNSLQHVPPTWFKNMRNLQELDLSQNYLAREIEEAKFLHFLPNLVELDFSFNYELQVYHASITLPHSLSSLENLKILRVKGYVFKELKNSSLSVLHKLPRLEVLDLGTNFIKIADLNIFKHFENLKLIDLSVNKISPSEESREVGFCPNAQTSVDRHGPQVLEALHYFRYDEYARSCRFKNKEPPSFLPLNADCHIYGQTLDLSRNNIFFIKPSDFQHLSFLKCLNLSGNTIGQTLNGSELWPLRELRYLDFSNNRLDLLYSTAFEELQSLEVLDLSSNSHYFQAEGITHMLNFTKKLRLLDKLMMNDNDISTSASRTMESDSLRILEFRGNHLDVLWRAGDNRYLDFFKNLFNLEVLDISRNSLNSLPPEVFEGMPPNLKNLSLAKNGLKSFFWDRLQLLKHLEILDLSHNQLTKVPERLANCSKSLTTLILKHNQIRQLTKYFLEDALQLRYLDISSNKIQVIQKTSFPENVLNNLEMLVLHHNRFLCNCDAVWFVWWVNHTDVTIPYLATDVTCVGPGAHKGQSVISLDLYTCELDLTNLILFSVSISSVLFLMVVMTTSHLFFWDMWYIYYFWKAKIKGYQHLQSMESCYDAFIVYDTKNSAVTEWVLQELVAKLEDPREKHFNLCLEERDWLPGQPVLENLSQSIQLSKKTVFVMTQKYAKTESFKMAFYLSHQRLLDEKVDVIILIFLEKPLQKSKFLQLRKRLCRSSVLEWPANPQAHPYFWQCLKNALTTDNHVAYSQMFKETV

Chain of Voltage-gated inwardly rectifying potassium channel KCNH2 (Q12809 whole entry): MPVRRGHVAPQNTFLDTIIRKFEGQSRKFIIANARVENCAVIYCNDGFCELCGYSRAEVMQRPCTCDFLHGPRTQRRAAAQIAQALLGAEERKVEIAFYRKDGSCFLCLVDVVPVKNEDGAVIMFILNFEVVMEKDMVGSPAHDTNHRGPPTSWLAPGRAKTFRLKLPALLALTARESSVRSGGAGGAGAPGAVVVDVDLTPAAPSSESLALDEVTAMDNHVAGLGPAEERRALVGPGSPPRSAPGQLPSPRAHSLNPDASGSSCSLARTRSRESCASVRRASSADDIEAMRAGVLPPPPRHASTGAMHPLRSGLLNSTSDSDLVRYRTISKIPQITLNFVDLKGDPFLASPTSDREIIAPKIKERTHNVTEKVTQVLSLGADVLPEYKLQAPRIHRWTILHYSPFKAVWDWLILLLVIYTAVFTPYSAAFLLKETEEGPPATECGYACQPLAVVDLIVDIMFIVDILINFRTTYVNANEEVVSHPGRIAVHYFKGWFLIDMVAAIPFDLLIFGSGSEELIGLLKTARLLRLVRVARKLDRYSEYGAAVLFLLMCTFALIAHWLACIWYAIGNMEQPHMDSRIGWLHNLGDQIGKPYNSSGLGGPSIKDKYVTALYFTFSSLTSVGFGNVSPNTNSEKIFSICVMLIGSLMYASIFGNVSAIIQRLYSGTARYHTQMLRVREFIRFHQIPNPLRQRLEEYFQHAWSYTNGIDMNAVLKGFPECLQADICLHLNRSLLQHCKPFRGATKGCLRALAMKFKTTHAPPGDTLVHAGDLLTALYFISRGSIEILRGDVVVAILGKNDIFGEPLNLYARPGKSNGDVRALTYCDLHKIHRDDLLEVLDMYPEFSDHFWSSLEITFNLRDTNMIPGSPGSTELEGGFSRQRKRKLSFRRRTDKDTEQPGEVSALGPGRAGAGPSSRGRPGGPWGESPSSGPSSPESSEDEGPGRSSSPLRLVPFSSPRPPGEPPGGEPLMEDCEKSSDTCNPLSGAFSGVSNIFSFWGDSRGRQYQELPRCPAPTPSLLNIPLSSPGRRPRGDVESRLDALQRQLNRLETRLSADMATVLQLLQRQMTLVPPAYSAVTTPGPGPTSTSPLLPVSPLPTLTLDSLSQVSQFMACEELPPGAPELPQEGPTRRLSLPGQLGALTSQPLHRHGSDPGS

Take `CCC[C@@H](CCO)Nc1nc(N)nc2cnn(Cc3ccc(CNC4CCOCC4)c4cccnc34)c12`: the IC50 is greater than 25 µM in the data set “in vitro” and greater than 50 µM in data set [3]. Also, the Stability in data set [1] and in data set [2] was 56% throughout.
Turning to `CCCCNc1nc(N)nc2cnn(Cc3ccccc3OC)c12`, the EC50 on Toll-like receptor 7 [4] turned out to be 0.384 µM.
In the case of `CCCCNc1nc(N)nc2cnn(Cc3ccc(CN4CCOCC4)cc3OC)c12`, the Stability turned out to be 20% in data set [1] and 15% in data set [2].
Take `CCCCNc1nc(N)nc2cnn(Cc3ccc(C(=O)NC4CCOCC4)cc3OC)c12`: the Stability is recorded as 68% in data set [1] and 62% in data set [2].
`CCC[C@@H](CCO)Nc1nc(N)nc2cnn(Cc3ccc(CNC4CCOCC4)cc3)c12`: the IC50 in the data set “in vitro” is greater than 25 µM; in data set [3], greater than 50 µM. Moreover, the EC50 at Toll-like receptor 7 [5] was greater than 5 µM. In addition, the figures for the Stability in data set [1] and in data set [2] were 90% and 91%, respectively.
With `CCCCN(C)c1nc(N)nc2cnn(Cc3ccc(CNC4CCOCC4)cc3OC)c12`, the results for the IC50 (in the data set “in vitro”; at Toll-like receptor 7 [5]; in data set [3]) were greater than 25 µM, greater than 5 µM and greater than 50 µM, respectively. The Stability in data set [1] is reported as 57%; in data set [2] it was 11%.
Regarding `CCCCNc1nc(N)nc2cnn(Cc3ccc(CNC4COC4)cc3OC)c12`, the Stability was found to be 55% in data set [1] and 46% in data set [2].
For `CCC[C@@H](C)Nc1nc(N)nc2cnn(Cc3ccc(CNC4CCOCC4)cc3OC)c12`, the 50% inhibitory concentration (IC50) was 24.7 µM in “in vitro” and 30.4 µM in data set [3]. Further, the Stability is on record as 70% in data set [1] and 30% in data set [2].
`CCC[C@@H](CCO)Nc1nc(N)nc2cnn(Cc3ccc(CNC4CCOCC4)cc3OC(F)F)c12`: the IC50 came to 7 µM in “in vitro” and 30.4 µM in data set [3]. The Stability was 51% in data set [1] and 55% in data set [2].
Regarding `COc1cc(CNC2CCOCC2)ccc1Cn1ncc2nc(N)nc(N[C@H](CCO)C3CC3)c21`, the IC50 in the data set “in vitro” was greater than 25 µM; in data set [3] it was greater than 50 µM. Moreover, the Stability was 9% in data set [1] and 87% in data set [2].
In the case of `CC[C@@H](CCO)Nc1nc(N)nc2cnn(Cc3ccc(CNC4CCOCC4)cc3OC)c12`, the IC50 in the data set “in vitro” is greater than 25 µM; against Toll-like receptor 7 [5], 1.25 µM; in data set [3], greater than 50 µM. Besides, the Stability in data set [1] is reported as 83%; in data set [2] it was 84%.
As to `CCCCNc1nc(N)nc2cnn(Cc3ccc(CNCc4ccncc4)cc3OC)c12`, the Stability in data set [1] is listed as 1%; in data set [2], 3%.
As to `COc1cc(CNC2CCOCC2)ccc1Cn1ncc2nc(N)nc(N[C@@H](C)CCO)c21`, the IC50 was greater than 25 µM in the data set “in vitro”, greater than 5 µM on Toll-like receptor 7 [5] and greater than 50 µM in data set [3]. The values for the Stability in data set [1] and in data set [2] were 89% and 100%, respectively.
With `CCCCNc1nc(N)nc2cnn(Cc3ccc(CN4CC5CC4CN5)cc3OC)c12` (configuration not stated), the Stability in data set [1] was 90%; in data set [2], 10%.
`COc1cc(CNC2CCOCC2)ccc1Cn1ncc2nc(N)nc(N[C@H](CCO)C(C)C)c21`: the IC50 was greater than 25 µM in the data set “in vitro” and greater than 50 µM in data set [3]. Also, the Stability in data set [1] came out at 80%; in data set [2] it was 63%.
Take `CCC[C@@H](CCO)Nc1nc(N)nc2cnn(Cc3ccc(CNC4CCOCC4)cc3F)c12`: the IC50 in the data set “in vitro” was greater than 25 µM; in data set [3], greater than 50 µM. Also, the Stability worked out at 66% in data set [1] and 91% in data set [2].
Regarding `CCCCNc1nc(N)nc2cnn(Cc3ccc(Cn4ccnc4)cc3OC)c12`, the Stability in data set [1] was determined as 1%; in data set [2], 26%.
Take `CCCCNc1nc(N)nc2cnn(Cc3ccc(CN4CC5(CNC5)C4)cc3OC)c12`: the Stability in data set [1] and in data set [2] was 100% throughout.
For the compound `CCC[C@@H](CCO)Nc1nc(N)nc2cnn(Cc3cnc(CNC4CCOCC4)cc3OC)c12`, the IC50 in “in vitro” was greater than 25 µM; in data set [3], greater than 50 µM. The Stability in data set [1] is 81%; in data set [2], 87%.
In “in vitro”, `CCCCNc1nc(N)nc2cnn(Cc3ccc(CNC4CCOCC4)cc3OC)c12` gave a half-inhibitory concentration (IC50) of 22 µM. Moreover, the concentration giving a half-maximal response (EC50) at Toll-like receptor 7 [5] worked out at 0.453 µM. Further, the Stability in data set [1] turned out to be 68%; in data set [2] it was 25%.
Consider `CCC[C@@H](CCO)Nc1nc(N)nc2cnn(Cc3ncc(CNC4CCOCC4)cc3OC)c12`, for which the half-maximal inhibitory concentration (IC50) is greater than 25 µM in “in vitro” and 6 µM in data set [3]. The Stability in data set [1] is given as 78%; in data set [2], 93%.
`CCCCNc1nc(N)nc2cnn(Cc3ccc(CN4CCCCC4)cc3OC)c12` came in with an EC50 on Toll-like receptor 7 [5] of 0.225 µM. For the same compound, the values for the Stability in data set [1] and in data set [2] were 33% and 2%, respectively.
`CCCCNc1nc(N)nc2cnn(Cc3ccc(CN4CCNCC4)cc3OC)c12`: the Stability is 83% in data set [1] and 60% in data set [2].
In turn, `CCC[C@@H](CCNC(C)=O)Nc1nc(N)nc2cnn(Cc3ccc(CNC4CCOCC4)cc3OC)c12` yielded an IC50 in the data set “in vitro” greater than 25 µM. Further, the Stability in data set [1] is listed as 93%; in data set [2], 91%.
For the compound `CCC[C@@H](CO)Nc1nc(N)nc2cnn(Cc3ccc(CNC4CCOCC4)cc3OC)c12`, the results for the half-inhibitory concentration (IC50) (in “in vitro”; in data set [3]) were greater than 25 µM and greater than 50 µM, respectively. Besides, the Stability in data set [1] came to 90%; in data set [2] it was 77%.
Turning to `CCCCOc1nc(N)nc2cnn(Cc3ccc(CNC4CCOCC4)cc3OC)c12`, the half-inhibitory concentration (IC50) is greater than 25 µM in “in vitro” and greater than 5 µM at Toll-like receptor 7 [5].
In turn, `CCC[C@@H](CCO)Nc1nc(N)nc2cnn(Cc3ccc(CNC4CCOCC4)nc3OC)c12` returned a concentration for half-maximal inhibition (IC50) in “in vitro” greater than 25 µM.
As to `CCCCNc1nc(N)nc2ncn(Cc3ccccc3)c12`, the EC50 on Toll-like receptor 7 [4] was greater than 5 µM.
